Tested on: Dkk1-LRP5-TCF-Luciferase
Assay: Functional Dkk1-LRP5-TCF-Luciferase Assay in U2OS Cells
Conditions: for fold induction at 2 µM / fold induction at 20 µM / EC50: Homo sapiens, U2OS; for fold induction at 2 µM: read-out: B = TCF ACTIVITY/DMSO CONTROL Fold induction @ 2.0 uM, 2.0 uM compound; for fold induction at 20 µM: read-out: C = TCF ACTIVITY/DMSO CONTROL Fold induction @ 20.0 uM, 20.0 uM compound; for A = MAX FOLD Induction/DMSO CONTROL: maximum fold induction over DMSO control

A = MAX FOLD Induction/DMSO CONTROL [fold] | EC50 [nM] | C = TCF ACTIVITY/DMSO CONTROL Fold induction @ 20.0 uM (20.0 uM compound, 20 µM) [fold] | Structure (SMILES) | fold induction at 2 µM | fold induction at 20 µM
 |  |  | NC[C@H]1CC[C@@H](Oc2nccc(-c3ccc4ccccc4c3)n2)CC1 [1-{cis-4-[(4-naphthalen-2-ylpyrimidin-2-yl)oxy]cyclohexyl}methanamine] | 4.2 | 
 |  |  | CCS(=O)(=O)N(C)CCN(C)[C@@H]1CCN(c2nccc(-c3ccc4ccccc4c3)n2)C1 [N-methyl-N-[2-(methyl{(3R)-1-[4-(2-naphthyl)pyrimidin-2-yl]pyrrolidin-3-yl}amino)ethyl]ethanesulfonamide] |  | 1.3
 |  |  | CC(C)(C)OC(=O)N1CC(CNc2nccc(-c3ccc4ccccc4c3)n2)C1 [tert-butyl 3-({[4-(2-naphthyl)pyrimidin-2-yl]amino}methyl)azetidine-1-carboxylate] | 1.8 | 1.02
 |  |  | ClCC1CCN(c2nccc(-c3ccc4ccccc4c3)n2)C1 (stereo not drawn) [2-[3-(chloromethyl)pyrrolidin-1-yl]-4-(2-naphthyl)pyrimidine] | 1.32 | 0.49
 |  |  | CCN(CC)C(=O)N1CCC(N(C)c2nccc(-c3ccc4ccccc4c3)n2)CC1 [N,N-diethyl-4-{methyl[4-(2-naphthyl)pyrimidin-2-yl]amino}piperidine-1-carboxamide] | 0.86 | 1.32
1.270 |  |  | CCN(CC)C(=O)N[C@@H]1CCN(c2nccc(-c3ccc4ccccc4c3)n2)C1 [N,N-diethyl-N′-{(3R)-1-[4-(2-naphthyl)pyrimidin-2-yl]pyrrolidin-3-yl}urea] | 1.22 | 1.8
 |  |  | NC1CCCN(c2nccc(-c3ccc4ccccc4c3)n2)CC1 (stereo not drawn) [1-[4-(2-naphthyl)pyrimidin-2-yl]azepan-4-amine] | 1.95 | 
 |  |  | c1ccc2cc(-c3ccnc(N4CC[C@@H](CN5CCCCC5)C4)n3)ccc2c1 [4-(2-naphthyl)-2-[(3S)-3-(piperidin-1-ylmethyl)pyrrolidin-1-yl]pyrimidine] | 1.34 | 1.06
3.680 | 28200 |  | CCN(CC)C1CCN(c2nccc(-c3ccc4ccccc4c3)n2)C1 (stereo not drawn) [N,N-diethyl-1-[4-(2-naphthyl)pyrimidin-2-yl]pyrrolidin-3-amine] | 1.06 | 2.67
2.690 |  |  | c1ccc(CNc2nccc(-c3ccc4ccccc4c3)n2)nc1 [4-(2-naphthyl)-N-(pyridin-2-ylmethyl)pyrimidin-2-amine] | 1.72 | 1.55
 |  |  | NCc1ccc(-c2nccc(-c3ccc4ccccc4c3)n2)cc1 [1-{4-[4-(2-naphthyl)pyrimidin-2-yl]phenyl}methanamine] | 2.5 | 
 |  |  | CCNC(=O)NCCC1CCN(c2nccc(-c3ccc4ccccc4c3)n2)CC1 [N-ethyl-N′-(2-{1-[4-(2-naphthyl)pyrimidin-2-yl]piperidin-4-yl}ethyl)urea] | 1.78 | 1.87
 |  |  | CC(C)C(=O)N(C)CCN(C)[C@@H]1CCN(c2nccc(-c3ccc4ccccc4c3)n2)C1 [N,2-dimethyl-N-[2-(methyl{(3R)-1-[4-(2-naphthyl)pyrimidin-2-yl]pyrrolidin-3-yl}amino)ethyl]propanamide] |  | 1.5
6.120 |  |  | c1ccc2cc(-c3ccnc(NCC4CCNCC4)n3)ccc2c1 [4-(2-naphthyl)-N-(piperidin-4-ylmethyl)pyrimidin-2-amine] | 1.33 | 1.36
 |  |  | c1ccc2cc(-c3ccnc(N4CC[C@@H](N5CCN6CCCCC6C5)C4)n3)ccc2c1 (stereo partly drawn) [2-{(3R)-1-[4-(2-naphthyl)pyrimidin-2-yl]pyrrolidin-3-yl}octahydro-2H-pyrido[1,2-a]pyrazine] | 1.3 | 
0.780 |  |  | Cc1ccc(S(=O)(=O)NC2CCCN(c3nccc(-c4ccc5ccccc5c4)n3)CC2)cc1 (stereo not drawn) [4-methyl-N-{1-[4-(2-naphthyl)pyrimidin-2-yl]azepan-4-yl}benzenesulfonamide] | 1.49 | 2.26
 |  |  | O[C@@H]1CCN(CC2CCN(c3nccc(-c4ccc5ccccc5c4)n3)C2)C1 (stereo partly drawn) [(3R)-1-({1-[4-(2-naphthyl)pyrimidin-2-yl]pyrrolidin-3-yl}methyl)pyrrolidin-3-ol] | 1.2 | 
1.755 | 2580 |  | CO[C@H]1CCN(c2nccc(-c3ccc4ccccc4c3)n2)C1 [2-[(3S)-3-methoxypyrrolidin-1-yl]-4-(2-naphthyl)pyrimidine] | 1.48 | 2.27
5.940 | 700 |  | NCCC1CCN(c2nccc(-c3ccc4ccccc4c3)n2)C1 (stereo not drawn) [2-{1-[4-(2-naphthyl)pyrimidin-2-yl]pyrrolidin-3-yl}ethanamine] | 4.23 | 

A = MAX FOLD Induction/DMSO CONTROL [fold] | EC50 [nM] | C = TCF ACTIVITY/DMSO CONTROL Fold induction @ 20.0 uM (20.0 uM compound, 20 µM) [fold] | Structure (SMILES) | fold induction at 2 µM | fold induction at 20 µM
3.210 | 12000 |  | CN(C)S(=O)(=O)N1CCC(Nc2nccc(-c3ccc4ccccc4c3)n2)CC1 [N,N-dimethyl-4-{[4-(2-naphthyl)pyrimidin-2-yl]amino}piperidine-1-sulfonamide] | 0.97 | 1.75
 |  |  | c1ccc2cc(-c3ccnc(N4CC[C@H](N5CC6CCNC6C5)C4)n3)ccc2c1 (stereo partly drawn) [5-{(3S)-1-[4-(2-naphthyl)pyrimidin-2-yl]pyrrolidin-3-yl}octahydropyrrolo[3,4-b]pyrrole] | 2.2 | 
1.630 |  |  | O=C(c1ccco1)N1CCN(c2nccc(-c3ccc4ccccc4c3)n2)CC1 [2-[4-(2-furoyl)piperazin-1-yl]-4-(2-naphthyl)pyrimidine] | 1.49 | 3.62
5.433 | 2680 |  | NCC1CCCN(c2nccc(-c3ccc4ccccc4c3)n2)C1 (stereo not drawn) [({1-[4-(2-naphthyl)pyrimidin-2-yl]piperidin-3-yl}methyl)amine] | 2.9 | 0.005
 |  |  | CS(=O)(=O)N[C@@H]1CCN(c2nccc(-c3ccc4ccccc4c3)n2)C1 [N-{(3R)-1-[4-(2-naphthyl)pyrimidin-2-yl]pyrrolidin-3-yl}methanesulfonamide] | 1.26 | 0.82
 |  |  | O=C(c1ccccc1)N1CC[C@H](Nc2nccc(-c3ccc4ccccc4c3)n2)C1 [N-[(3S)-1-benzoylpyrrolidin-3-yl]-4-(2-naphthyl)pyrimidin-2-amine] | 1.23 | 
 |  |  | COC(=O)NCC1CN(c2nccc(-c3ccc4ccccc4c3)n2)C1 [methyl ({1-[4-(2-naphthyl)pyrimidin-2-yl]azetidin-3-yl}methyl)carbamate] | 1.28 | 1.08
3.745 | 1030 |  | O[C@@H]1CCCN(CC2CCN(c3nccc(-c4ccc5ccccc5c4)n3)C2)C1 (stereo partly drawn) [(3R)-1-({1-[4-(2-naphthyl)pyrimidin-2-yl]pyrrolidin-3-yl}methyl)piperidin-3-ol] | 2.34 | 0.01
1.550 | 4300 |  | NC(=O)N[C@@H]1CCN(c2nccc(-c3ccc4ccccc4c3)n2)C1 [N-{(3R)-1-[4-(2-naphthyl)pyrimidin-2-yl]pyrrolidin-3-yl}urea] | 2.09 | 1.63
 |  |  | CC(C)(C)OC(=O)N1CC[C@@H](CNc2nccc(-c3ccc4ccccc4c3)n2)C1 [tert-butyl (3S)-3-({[4-(2-naphthyl)pyrimidin-2-yl]amino}methyl)pyrrolidine-1-carboxylate] |  | 0.01
1.660 |  |  | N[C@@H](CO)C1CCN(c2nccc(-c3ccc4ccccc4c3)n2)CC1 [(2R)-2-amino-2-{1-[4-(2-naphthyl)pyrimidin-2-yl]piperidin-4-yl}ethanol] | 2.96 | 
 |  |  | OCC1CCN(c2nccc(-c3ccc4ccccc4c3)n2)CC1 [{1-[4-(2-naphthyl)pyrimidin-2-yl]piperidin-4-yl}methanol] | 1.81 | 0.02
3.220 |  |  | c1ccc2cc(-c3ccnc(N4CC[C@H](N5CCCCCC5)C4)n3)ccc2c1 [1-{(3S)-1-[4-(2-naphthyl)pyrimidin-2-yl]pyrrolidin-3-yl}azepane] | 3.97 | 
1.610 |  |  | CC(=O)N[C@@H]1CCN(c2nccc(-c3ccc4ccccc4c3)n2)C1 [N-{(3R)-1-[4-(2-naphthyl)pyrimidin-2-yl]pyrrolidin-3-yl}acetamide] | 1.62 | 0.2
 |  |  | CN(C)C(=O)NC1CCCN(c2nccc(-c3ccc4ccccc4c3)n2)CC1 (stereo not drawn) [N,N-dimethyl-N′-{1-[4-(2-naphthyl)pyrimidin-2-yl]azepan-4-yl}urea] | 1.74 | 1.75
 |  |  | CC(C)(C)OC(=O)/N=C(/NCC1CCN(c2nccc(-c3ccc4ccccc4c3)n2)CC1)NC(=O)OC(C)(C)C [di-tert-butyl {(Z)-[({1-[4-(2-naphthyl)pyrimidin-2-yl]piperidin-4-yl}methyl)amino]methylylidene}biscarbamate] | 0.94 | 1.35
2.273 | 1900 | 2.500 | CC(=O)NCC1CCN(c2nccc(-c3ccc4ccccc4c3)n2)CC1 [N-({1-[4-(2-naphthyl)pyrimidin-2-yl]piperidin-4-yl}methyl)acetamide] | 1.63 | 2.71
 |  |  | NCC1CCN(c2nccc(-c3ccc4cc(-c5cccs5)ccc4c3)n2)CC1 [1-(1-{4-[6-(2-thienyl)-2-naphthyl]pyrimidin-2-yl}piperidin-4-yl)methanamine] | 1.21 | 0.03
 |  |  | NC[C@@H]1C[C@H]2C[C@@H]1CN2c1nccc(-c2ccc3ccccc3c2)n1 [1-{(1S,4S,5R)-2-[4-(2-naphthyl)pyrimidin-2-yl]-2-azabicyclo[2.2.1]hept-5-yl}methanamine] | 1.1 | 

Source: patent US20090054392A1, “NAPHTHYLPYRIMIDINE, NAPHTHYLPYRAZINE AND NAPHTHYLPYRIDAZINE ANALOGS AND THEIR USE AS AGONISTS OF THE WNT-BETA-CATENIN CELLULAR MESSAGING SYSTEM” (Wyeth, priority 2007, published 2009)
